From paper PMC9814544 (Communications Chemistry, 2020)
Values joined by “and” are separate entries in the source; they are usually repeats but may differ in a detail not shown here. Equal entries are not always repeated.

Legend:
[1] = Metabolic stability in mouse liver microsomes; format: in vitro ADME; conditions: in vitro clearance as % hepatic blood flow, n = 1
Description: (§1) The metabolic degradation of the test compound is assayed at 37 °C with microsomes. The final incubation volume of 100 µl per time point contains TRIS buffer pH 7.6 at RT (0.1 M), magnesium chloride (5 mM), microsomal protein (1 mg/ml or 0.5 mg/ml depending on species) and the test compound at a final concentration of 1 µM.
(§2) Following a short preincubation period at 37 °C, the reactions were initiated by addition of beta-nicotinamide adenine dinucleotide phosphate, reduced form (NADPH, 1 mM) and terminated by transfering an aliquot into solvent after different time points. The quenched incubations are pelleted by centrifugation (10000 g, 5 min). An aliquot of the supernatant is assayed by LC-MS/MS for the amount of parent compound. The slope of the semi logarithmic plot of the concentration-time profile determines the half-life. The clearance is calculated by upscaling considering the amount of protein in the incubation, microsomal recovery and liver weight and normalized to the hepatic blood flow of the respective species. The number of experiments for BI-0115 is n = 1.

[2] = PAMPA passive permeability; format: in vitro ADME
Description: The PAMPA assay provides data on the passive permeability of test compounds through immobilized artificial phospholipid membranes. The method used was extensively described previously. The number of experiments for BI-0115 is n = 1.

LOX129 (LOX-1 129-273) = molecular target: T1, LOX129 (LOX-1 129-273) (Homo sapiens, UniProt P78380); assay: Isothermal titration calorimetry; format: binding
T1 construct: 6His-tag with thrombin cleavage site (N, cleaved yes); made in house; host or cells: E. coli SHuffle cells (New England BioLabs), pET28a
Description: For additional biophysical profiling of the specific SPR binders, isothermal titration calorimetry (ITC) was used. Due to limited solubility of the compounds, an inverse setup was used by titrating LOX129 into compound solution. The mean Kd value of three independent measurements is 7 µM (Supplementary Table 4).
Isothermal titration calorimetry experiments were conducted on a MicroCal iTC200 instrument (Malvern) using LOX-1 that had been passed through a PD-10 desalting column (GE Healthcare) equilibrated with 20 mM Tris pH 7.3 and 150 mM NaCl. Complete saturation of 35 µM, respectively 40 µM LOX inhibitor was typically achieved by injecting 18× 2 µl aliquots of 300 µM LOX-1 at a temperature of 25 °C. As a control 300 µM LOX-1 was injected in buffer (n = 1, Supplementary Fig. 19).
The thermodynamic binding parameters were extracted by non-linear regression analysis of the binding isotherms (MicroCal PEAQ-ITC Analysis Software). A single-site binding model was applied yielding the binding enthalpy (ΔH), stoichiometry (n), entropy (ΔS) and association constant (Ka). The binding isotherm of protein in buffer control was not subtracted during data evaluation.

[3] = Metabolic stability in human liver microsomes; format: in vitro ADME; conditions: in vitro clearance as % hepatic blood flow, n = 1
Description: as §1, §2

[4] = AF dye fluorescence quenching assay; conditions: at 30 µM; n = 1
Description: Employing filter criteria like < 65% control in the primary assay and a minimum difference of 30% to the SR-B1 counter screen, about 3300 compounds remained. These compounds were tested in concentration response using both assay formats (Supplementary Fig. 1). To qualify the identified compounds further we developed additional assays with the goal to identify compounds that merely quenched the AF dye fluorescence. In this assay, the fluorescence signal of human AF647- or AF594-labeled oxLDL was recorded in the presence and absence of compound. Only compounds without relevant quenching were subsequently selected for further analysis.
Furthermore, quenching assays were established to eliminate compounds showing quenching of the AF594 or AF647 dye fluorescence. For this, human oxLDL labeled with either AF594 or AF647 was incubated with compound and the fluorescence signal with and without compound was measured to determine the quenching of the fluorescence. For both compounds quenching of fluorescence has been tested with n = 1.

LOX129 (LOX-1) = test system: T2, LOX129 (LOX-1); assay: Native ESI-MS of LOX-1 with ligand; format: binding, human; conditions: Vc = 60V; up to 10 eq ligand
T2 construct: 6His-tag with thrombin cleavage site (N, cleaved yes); made in house; host or cells: E. coli SHuffle cells (New England BioLabs), pET28a
Description: This is in agreement with the biophysical data obtained so far. The ITC measurements gave a stoichiometry of protein:ligand of 1.8 which fits to multiples of a 2:1 complex. To confirm that the crystallographically observed tetrameric arrangement exists also in solution native Electrospray-Ionization Mass Spectrometry (ESI-MS) analysis was used. A MS experiment using covalent dimeric LOX129 under denaturing conditions was performed giving a mass of 33773 Da, corresponding to a mass difference of 13 Da to the theoretical molecular weight of 33786 Da (Supplementary Fig. 9). This mass difference corresponds to the three intramolecular and the one intermolecular disulfide bonds (14 Da). MS analysis under non denaturing conditions (Fig. 4a) measured LOX129 mainly as a dimer. Only traces of the tetrameric state were detectable. A binding experiment of BI-0115 to LOX-1 was performed using soft MS tuning parameters (Vc = 40V) in order to maintain BI-0115 interactions in the gas phase.
Mass spectrometry experiments were carried out on an electrospray time-of-flight mass spectrometer (LCT, Waters, Manchester, UK) equipped with an automated chip-based nanoESI device (Triversa Nanomate, Advion Biosciences, Ithaca, NY). […]

micr. Stab mLM [1]: 95 %QH | Papp ([2]; PAMPA, n = 1): 1.5 ×10⁻⁶ cm/s | Permeability, PAMPA assay ([2]; in words): good | ITC thermodynamic driving force (LOX129 (LOX-1 129-273); in words): strong entropic contribution | Kd (LOX129 (LOX-1 129-273); mean of n = 3, 300 µM LOX129 dimer titrated into compound, 25 °C, read-out: ITC Kd): 7 µM and 6.99 µM | ITC N (molar ratio protein:inhibitor) (LOX129 (LOX-1 129-273); stoichiometry, mean of n = 3): 1.8 and 1.77 ±0.34 | micr. Stab hLM [3]: 77 %QH
Compound: CCCN1C(=O)c2ccc(Cl)cc2Nc2ncccc21 [BI-0115]
Quench Assay [4]: −9.1% | ligand induced tetramerization, increase of the 16+ charge state (LOX129 (LOX-1)): up to 33%
